Assay results from US7105527B2, “N4-acylcytosine nucleosides for treatment of viral infections” (priority 2001, dated 2006).
Where two headings read alike, the source gives them in different places.

What was measured:
[1] = tested on: HIV-1NL4-3; assay: Anti-HIV assay in MT-4 cells, consensus p24 assay; format: cell-based
Method: (§1) In a second antiviral testing system, the potency of the compounds was determined by measurement of viral RNA accumulation in HIV-1RF infected MT-2 cells (Bacheler L T, Paul M, Otto M J, Jadhav P K, Stone B A & Miller J A (1994) An assay for HIV RNIn infected cell lysates, and its use for rapid evaluation of antiviral efficacy. Antivir. Chem. Chemother. 5:111–121). The virus titer was established to determine the dilution producing 15 to 30 ng/RNA per well of HIV RNIn 3 days of infection. HIV-1 RNA was quantified using biotinylated capture and alkaline phosphatase-derivatized reporter oligonucleotides as described previously (Charvet A-S, Camplo M, Faury P, Graciet J C, Mourier N, Chermann J C & Kraus J L (1994) Inhibition of human immunodeficiency virus type 1 replication by phosphonoformate- and phosphonoacetate-2′,3′-dideoxy-3′-thiacytidine conjugates. J. Med. Chem. 37:2216–2223). In a third system, the effect of analogs on the replication of HIV-1NL4-3 was determined via the InterCompany Consortium consensus p24 assay as previously described (Jadhav P K & MacKay M F (1997) Cyclic urea amide: HIV-1 protease inhibitors with low nanomolar potency against both wild types and protease inhibitor resistant mutants of HIV. J. Med. Chem. 40:181–190). Recombinant viruses were recovered by transfecting the appropriate NL4-3 plasmid by lipofection. Virus stocks recovered 7 to 10 days post-transfection were titered on MT-4 cells to determine if the dilution produced 1,000 to 3,000 ng p24 in 4 days. This dilution was then used in drug susceptibility assays, where drug was added 24 h post infection of cells, and p24 quantified by ELISA 3 days later.

[2] = tested on: HIV-1LAl; assay: Anti-HIV (in PBM cells) assay, reverse transcriptase readout; format: cell-based; conditions: Table 1, read-out: Anti-HIV-1 activity in different cells (EC90, μM) PBM
Method: Anti-HIV-1 activity of the compounds was determined in human peripheral blood mononuclear (PBM) cells as described previously (Schinazi […]., Cannon D., Mathis R., Lloyd R. M. Jr., […]., St. Clair M., Wilson J., Furman P. A., Painter G., Choi […]. Antimicrob. Agents Chemother. 1992, 36, 2423; Schinazi […]., Cannon D., Xie […]., Smith G., Hahn E. Antimicrob. Agents Chemother. 1990, 34, 1061). Stock solutions ([…]) of the compounds were prepared in sterile DMSO and then diluted to the desired concentration in growth medium. […] Virus obtained from the cell supernatant was quantified on day 6 after infection by a reverse transcriptase assay using (rA)n.(dT)12.18 as template-primer. […] AZT was included as positive control. The antiviral EC50 and EC90 were obtained from the concentration-response curve using the median effective method described previously (Chou […]. Enzyme Regul. 1984, 22, 27-55; Belen'kii M. S. & Schinazi R. F. Antiviral Res. 1994, 25, 1-11).

[3] = Cytotoxicity assay in Vero cells; format: cell-based; conditions: African green monkey, Table 1, read-out: Cytotoxicity in different cells (IC50, μM) Vero
Method: (§2) The toxicity of the compounds was assessed in Vero, human PBM, CEM (human lymphoblastoid), MT-2, and HepG2 cells, as described previously (Schinazi […]., Cannon D. L., Xie […]., Smith […]. […] Cycloheximide was included as positive cytotoxic control, and untreated cells exposed to solvent were included as negative controls. The cytotoxicity IC50 was obtained from the concentration-response curve using the median effective method described previously (Chou […]. […] Belen'kii M. S. & Schinazi R. F.

[4] = Cytotoxicity assay in MT-2 cells; format: cell-based; conditions: human, Table 1, read-out: Cytotoxicity in different cells (IC50, μM) MT-2
Method: as §2

[5] = Cytotoxicity assay in PBM cells; format: cell-based, human; conditions: human, human PBM cells, Table 1, read-out: Cytotoxicity in different cells (IC50, μM) PBM
Method: as §2

[6] = Cytotoxicity assay in HepG2 cells; format: cell-based; conditions: human, Table 1, read-out: Cytotoxicity in different cells (IC50, μM) HepG2
Method: as §2

[7] = Cytotoxicity assay in CEM cells; format: cell-based, human; conditions: human, CEM lymphoblastoid cells, Table 1, read-out: Cytotoxicity in different cells (IC50, μM) CEM
Method: as §2

[8] = tested on: HIV-1RF; assay: Anti-HIV (in MT-2 cells) assay, viral RNA accumulation; format: cell-based; conditions: Table 1, EC90, MT-2 cells, read-out: Anti-HIV-1 activity in different cells (EC90, μM) MT-2
Method: as §1

[9] = tested on: Vero cells; assay: Cytotoxicity assay in Vero cells; format: cell-based; conditions: Table 1, read-out: Cytotoxicity in different cells (IC50, μM) Vero
Method: as §2

[10] = tested on: MT-2 cells; assay: Cytotoxicity assay in MT-2 cells; format: cell-based; conditions: Table 1, read-out: Cytotoxicity in different cells (IC50, μM) MT-2
Method: as §2

[11] = tested on: human PBM cells; assay: Cytotoxicity assay in PBM cells; format: cell-based; conditions: Table 1, read-out: Cytotoxicity in different cells (IC50, μM) PBM
Method: as §2

[12] = tested on: HepG2 cells; assay: Cytotoxicity assay in HepG2 cells; format: cell-based; conditions: Table 1, read-out: Cytotoxicity in different cells (IC50, μM) HepG2
Method: as §2

[13] = tested on: CEM (human lymphoblastoid) cells; assay: Cytotoxicity assay in CEM cells; format: cell-based; conditions: Table 1, read-out: Cytotoxicity in different cells (IC50, μM) CEM
Method: as §2

[14] = Human immunodeficiency virus 1, MT4, Table 1, read-out: Anti-HIV-1 activity in different cells (EC90, μM) MT-4
[15] = Human immunodeficiency virus 1, PBMC
[16] = Human immunodeficiency virus 1, MT2

O=C(Nc1nc(=O)n([C@H]2CC[C@@H](CO)O2)cc1F)c1ccc(Cl)cc1 [Compound 12, β-D-N^4-(4-chlororobenzoyl)-2′,3′-dideoxy-5-fluorocytidine]
EC90 [1, 14]: 0.37 µM
EC90 [2, 15]: 0.02 µM
IC50 [3]: > 100 µM
IC50 [4]: > 50 µM
IC50 [5]: > 100 µM
IC50 [6]: 7.3 µM
IC50 [7]: 33.4 µM
EC90 [8, 16]: 0.22 µM

O=C(Nc1nc(=O)n([C@H]2CC[C@@H](CO)O2)cc1F)c1ccc(Br)cc1 [Compound 13, β-D-N^4-(4-bromobenzoyl)-2′,3′-dideoxy-5-fluorocytidine]
EC90 [1, 14]: 0.3 µM
EC90 [2, 15]: 0.03 µM
IC50 [3]: > 100 µM
IC50 [4]: > 50 µM
IC50 [5]: > 100 µM
IC50 [6]: > 100 µM
IC50 [7]: 31.6 µM
EC90 [8, 16]: 0.14 µM

O=C(Nc1nc(=O)n([C@H]2CC[C@@H](CO)O2)cc1F)c1cccc(F)c1 [Compound 14, β-D-2′,3′-Dideoxy-5-fluoro-M-(3-fluorobenzoyl)cytidine]
EC90 [1, 14]: 0.43 µM
EC90 [2, 15]: 0.106 µM
IC50 [3]: > 100 µM
IC50 [4]: > 50 µM
IC50 [5]: > 100 µM
IC50 [6]: > 100 µM
IC50 [7]: 80.8 µM
EC90 [8, 16]: 0.46 µM

O=C(Nc1nc(=O)n([C@H]2CC[C@@H](CO)O2)cc1F)c1cccc(Cl)c1 [Compound 15, β-D-N^4-(3-Chlorobenzoyl)-2′,3′-dideoxy-5-fluorocytidine]
EC90 [1, 14]: 0.51 µM
EC90 [2, 15]: 0.08 µM
IC50 [3]: 91.6 µM
IC50 [4]: > 50 µM
IC50 [5]: > 100 µM
IC50 [6]: > 100 µM
IC50 [7]: 68.1 µM
EC90 [8, 16]: 0.4 µM

O=C(Nc1nc(=O)n([C@H]2CC[C@@H](CO)O2)cc1F)c1cccc(Br)c1 [Compound 16, β-D-N^4-(3-Bromobenzoyl)-2′,3′-dideoxy-5-fluorocytidine]
EC90 [1, 14]: 0.42 µM
EC90 [2, 15]: 0.145 µM
IC50 [3]: 80.6 µM
IC50 [4]: > 50 µM
IC50 [5]: > 100 µM
IC50 [6]: > 100 µM
IC50 [7]: 40.6 µM
EC90 [8, 16]: 0.51 µM

O=C(Nc1nc(=O)n([C@H]2CC[C@@H](CO)O2)cc1F)c1ccc([N+](=O)[O-])cc1 [Compound 18, β-D-2′,3′-Dideoxy-5-fluoro-N^4-(4-nitrobenzoyl)cytidine]
EC90 [1, 14]: 0.3 µM
EC90 [2, 15]: 0.18 µM
IC50 [3]: > 100 µM
IC50 [4]: > 50 µM
IC50 [5]: > 100 µM
IC50 [6]: > 100 µM
IC50 [7]: > 100 µM
EC90 [8, 16]: 0.4 µM

O=C(Nc1nc(=O)n([C@H]2CC[C@@H](CO)O2)cc1F)c1cccc([N+](=O)[O-])c1 [Compound 19, β-D-2′,3′-Dideoxy-S-fluoro-N-(3-nitrobenzoyl)cytidine]
EC90 ([1]; Table 1, read-out: Anti-HIV-1 activity in different cells (EC90, μM) MT-4): 1.59 µM
EC90 [2]: 1.6 µM
IC50 [9]: > 100 µM
IC50 [10]: > 50 µM
IC50 [11]: > 100 µM
IC50 [12]: > 100 µM
IC50 [13]: > 100 µM
EC90 [8]: 1.8 µM
